Reference: article PMC3226499, “Environmental Impact on Vascular Development Predicted by High-Throughput Screening” (Environmental Health Perspectives, 2011)
Where two headings read alike, the source gives them in different places.

Columns and labels:
[1] = tested on: six prioritized vascular targets (VEGFR2, TIE2, CCL2, PAI-1, CXCL10, uPAR); assay: Vascular bioactivity score (VBS): weighted sum of activity across 23 ToxCast assays; design: species or system human
pregnant rabbits = details: cited from earlier work
PI3Ka = PI3Ka (Homo sapiens, UniProt P42336); assay: PI3Ka biochemical assay
Chain of PI3Ka (P42336 whole entry): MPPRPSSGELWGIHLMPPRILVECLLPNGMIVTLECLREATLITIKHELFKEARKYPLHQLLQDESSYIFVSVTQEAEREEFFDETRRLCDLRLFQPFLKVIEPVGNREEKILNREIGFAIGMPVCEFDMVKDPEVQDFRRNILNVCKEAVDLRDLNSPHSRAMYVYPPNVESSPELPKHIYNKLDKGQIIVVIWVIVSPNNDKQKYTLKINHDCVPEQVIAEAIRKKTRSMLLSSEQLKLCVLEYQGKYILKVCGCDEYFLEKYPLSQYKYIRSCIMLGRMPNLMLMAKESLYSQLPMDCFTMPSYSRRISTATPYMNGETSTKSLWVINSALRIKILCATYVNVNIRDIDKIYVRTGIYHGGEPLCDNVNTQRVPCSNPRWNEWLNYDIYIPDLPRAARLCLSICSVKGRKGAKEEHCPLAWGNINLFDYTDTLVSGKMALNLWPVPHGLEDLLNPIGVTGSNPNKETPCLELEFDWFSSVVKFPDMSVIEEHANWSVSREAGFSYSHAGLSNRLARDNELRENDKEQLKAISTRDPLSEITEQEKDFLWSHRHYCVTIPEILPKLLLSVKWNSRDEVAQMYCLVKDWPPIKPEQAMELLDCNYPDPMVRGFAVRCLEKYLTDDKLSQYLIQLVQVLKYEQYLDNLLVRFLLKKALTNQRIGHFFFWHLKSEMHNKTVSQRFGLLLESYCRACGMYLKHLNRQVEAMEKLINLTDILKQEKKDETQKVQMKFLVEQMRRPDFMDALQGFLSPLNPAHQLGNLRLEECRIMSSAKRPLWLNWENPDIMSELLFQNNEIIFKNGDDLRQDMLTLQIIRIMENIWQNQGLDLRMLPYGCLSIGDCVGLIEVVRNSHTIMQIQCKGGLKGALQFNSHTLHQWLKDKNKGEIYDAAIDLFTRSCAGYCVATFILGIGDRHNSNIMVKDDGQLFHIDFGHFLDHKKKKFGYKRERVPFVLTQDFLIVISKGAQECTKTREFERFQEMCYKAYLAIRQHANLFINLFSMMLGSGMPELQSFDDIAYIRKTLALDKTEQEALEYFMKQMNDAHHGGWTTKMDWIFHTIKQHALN
Chain of PI3Ka (P27986 whole entry partner): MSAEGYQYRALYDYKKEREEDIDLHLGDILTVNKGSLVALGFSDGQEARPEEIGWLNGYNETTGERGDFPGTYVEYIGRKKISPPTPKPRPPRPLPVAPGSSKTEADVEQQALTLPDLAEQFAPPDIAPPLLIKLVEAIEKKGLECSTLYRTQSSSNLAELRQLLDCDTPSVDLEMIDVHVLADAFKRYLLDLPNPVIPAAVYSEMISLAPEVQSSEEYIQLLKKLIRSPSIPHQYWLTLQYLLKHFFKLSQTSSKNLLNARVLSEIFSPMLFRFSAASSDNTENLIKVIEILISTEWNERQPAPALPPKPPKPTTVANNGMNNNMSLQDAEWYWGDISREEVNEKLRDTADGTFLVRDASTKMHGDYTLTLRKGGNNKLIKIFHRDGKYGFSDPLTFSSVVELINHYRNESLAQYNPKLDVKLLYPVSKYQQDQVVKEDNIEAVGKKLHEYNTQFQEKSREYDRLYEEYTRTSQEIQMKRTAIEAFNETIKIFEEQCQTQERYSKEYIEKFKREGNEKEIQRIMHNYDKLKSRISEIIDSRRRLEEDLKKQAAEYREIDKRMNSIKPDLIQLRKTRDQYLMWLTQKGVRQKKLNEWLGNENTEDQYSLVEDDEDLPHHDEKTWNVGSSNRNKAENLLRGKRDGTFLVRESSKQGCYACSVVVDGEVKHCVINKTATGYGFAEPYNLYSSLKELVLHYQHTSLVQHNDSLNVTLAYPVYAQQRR

pregnant rats = details: cited from earlier work
PTEN = PTEN (Homo sapiens, UniProt P60484); assay: PTEN biochemical assay
Chain of PTEN (P60484 whole entry, species assumed): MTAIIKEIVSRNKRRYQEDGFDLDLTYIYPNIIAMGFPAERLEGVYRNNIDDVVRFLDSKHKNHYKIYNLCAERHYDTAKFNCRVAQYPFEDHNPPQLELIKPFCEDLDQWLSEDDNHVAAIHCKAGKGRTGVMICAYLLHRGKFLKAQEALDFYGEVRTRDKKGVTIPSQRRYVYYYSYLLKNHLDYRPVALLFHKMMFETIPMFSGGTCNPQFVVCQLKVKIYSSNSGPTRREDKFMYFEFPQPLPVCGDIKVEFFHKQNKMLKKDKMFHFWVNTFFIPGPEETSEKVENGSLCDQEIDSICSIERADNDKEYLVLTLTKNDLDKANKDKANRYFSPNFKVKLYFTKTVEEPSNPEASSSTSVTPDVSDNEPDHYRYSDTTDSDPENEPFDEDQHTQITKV

mouse = details: ToxRefDB end points; ref U.S. EPA 2010b; cited from earlier work
EphB2 = biological target: T1, EphB2 (Homo sapiens, UniProt P29323); assay: EphB2 biochemical assay; details: read-out: EphB2 AC50
T1 sequence (P29323 569-986 isoform P29323-2 limits assumed): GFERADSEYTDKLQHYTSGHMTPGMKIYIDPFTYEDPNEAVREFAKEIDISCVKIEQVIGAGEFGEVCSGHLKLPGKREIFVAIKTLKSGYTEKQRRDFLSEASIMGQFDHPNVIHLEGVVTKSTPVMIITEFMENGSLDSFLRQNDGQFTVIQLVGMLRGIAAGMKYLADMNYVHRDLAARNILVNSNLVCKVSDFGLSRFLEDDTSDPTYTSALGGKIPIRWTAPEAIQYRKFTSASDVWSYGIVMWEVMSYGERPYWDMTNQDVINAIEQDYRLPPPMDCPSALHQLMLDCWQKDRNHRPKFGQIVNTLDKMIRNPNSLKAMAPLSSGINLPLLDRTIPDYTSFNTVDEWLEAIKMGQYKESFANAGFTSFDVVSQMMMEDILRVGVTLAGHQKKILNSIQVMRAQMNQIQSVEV

VEGFR3 = VEGFR3 (Homo sapiens, UniProt P35916); assay: VEGFR3 biochemical assay
Chain of VEGFR3 (P35916 25-1363, species assumed): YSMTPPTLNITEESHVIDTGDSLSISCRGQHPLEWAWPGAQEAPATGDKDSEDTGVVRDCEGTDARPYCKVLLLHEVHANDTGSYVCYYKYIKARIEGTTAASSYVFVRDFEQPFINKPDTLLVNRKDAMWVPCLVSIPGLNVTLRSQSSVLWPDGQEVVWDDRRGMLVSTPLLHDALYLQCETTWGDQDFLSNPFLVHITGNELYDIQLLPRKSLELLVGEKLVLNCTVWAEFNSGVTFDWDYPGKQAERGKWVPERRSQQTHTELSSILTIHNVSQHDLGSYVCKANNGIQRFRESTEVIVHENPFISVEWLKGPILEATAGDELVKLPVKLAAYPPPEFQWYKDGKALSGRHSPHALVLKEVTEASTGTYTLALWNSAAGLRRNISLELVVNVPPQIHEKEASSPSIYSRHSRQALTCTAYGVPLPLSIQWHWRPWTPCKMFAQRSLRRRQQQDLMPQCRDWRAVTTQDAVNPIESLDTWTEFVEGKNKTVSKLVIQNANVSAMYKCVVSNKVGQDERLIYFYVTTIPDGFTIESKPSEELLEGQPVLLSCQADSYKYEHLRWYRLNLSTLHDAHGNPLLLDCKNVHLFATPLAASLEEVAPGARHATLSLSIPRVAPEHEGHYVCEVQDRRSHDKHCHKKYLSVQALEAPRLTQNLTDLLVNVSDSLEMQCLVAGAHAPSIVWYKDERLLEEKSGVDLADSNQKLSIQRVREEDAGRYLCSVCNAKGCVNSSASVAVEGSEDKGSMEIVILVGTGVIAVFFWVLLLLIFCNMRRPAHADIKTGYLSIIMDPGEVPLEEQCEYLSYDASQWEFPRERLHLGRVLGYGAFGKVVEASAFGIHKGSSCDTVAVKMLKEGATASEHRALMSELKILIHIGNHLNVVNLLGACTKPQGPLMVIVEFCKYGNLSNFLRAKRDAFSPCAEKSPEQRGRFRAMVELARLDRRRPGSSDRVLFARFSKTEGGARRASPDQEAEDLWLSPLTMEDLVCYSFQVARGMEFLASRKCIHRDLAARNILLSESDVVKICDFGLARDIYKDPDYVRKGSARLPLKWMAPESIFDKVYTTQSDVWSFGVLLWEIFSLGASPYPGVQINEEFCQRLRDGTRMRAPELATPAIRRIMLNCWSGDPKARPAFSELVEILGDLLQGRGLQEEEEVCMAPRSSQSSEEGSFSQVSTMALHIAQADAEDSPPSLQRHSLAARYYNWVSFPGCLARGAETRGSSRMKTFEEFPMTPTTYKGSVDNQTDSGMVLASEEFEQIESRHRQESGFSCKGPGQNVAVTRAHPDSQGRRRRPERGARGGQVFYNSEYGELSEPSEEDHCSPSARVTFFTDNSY

VEGFR2 = VEGFR2 (Homo sapiens, UniProt P35968); assay: VEGFR2 biochemical assay
TIE2 = TIE2 (Homo sapiens, UniProt Q02763); assay: TIE2 cell-free biochemical assay
Chain of TIE2 (Q02763 23-1124, species assumed): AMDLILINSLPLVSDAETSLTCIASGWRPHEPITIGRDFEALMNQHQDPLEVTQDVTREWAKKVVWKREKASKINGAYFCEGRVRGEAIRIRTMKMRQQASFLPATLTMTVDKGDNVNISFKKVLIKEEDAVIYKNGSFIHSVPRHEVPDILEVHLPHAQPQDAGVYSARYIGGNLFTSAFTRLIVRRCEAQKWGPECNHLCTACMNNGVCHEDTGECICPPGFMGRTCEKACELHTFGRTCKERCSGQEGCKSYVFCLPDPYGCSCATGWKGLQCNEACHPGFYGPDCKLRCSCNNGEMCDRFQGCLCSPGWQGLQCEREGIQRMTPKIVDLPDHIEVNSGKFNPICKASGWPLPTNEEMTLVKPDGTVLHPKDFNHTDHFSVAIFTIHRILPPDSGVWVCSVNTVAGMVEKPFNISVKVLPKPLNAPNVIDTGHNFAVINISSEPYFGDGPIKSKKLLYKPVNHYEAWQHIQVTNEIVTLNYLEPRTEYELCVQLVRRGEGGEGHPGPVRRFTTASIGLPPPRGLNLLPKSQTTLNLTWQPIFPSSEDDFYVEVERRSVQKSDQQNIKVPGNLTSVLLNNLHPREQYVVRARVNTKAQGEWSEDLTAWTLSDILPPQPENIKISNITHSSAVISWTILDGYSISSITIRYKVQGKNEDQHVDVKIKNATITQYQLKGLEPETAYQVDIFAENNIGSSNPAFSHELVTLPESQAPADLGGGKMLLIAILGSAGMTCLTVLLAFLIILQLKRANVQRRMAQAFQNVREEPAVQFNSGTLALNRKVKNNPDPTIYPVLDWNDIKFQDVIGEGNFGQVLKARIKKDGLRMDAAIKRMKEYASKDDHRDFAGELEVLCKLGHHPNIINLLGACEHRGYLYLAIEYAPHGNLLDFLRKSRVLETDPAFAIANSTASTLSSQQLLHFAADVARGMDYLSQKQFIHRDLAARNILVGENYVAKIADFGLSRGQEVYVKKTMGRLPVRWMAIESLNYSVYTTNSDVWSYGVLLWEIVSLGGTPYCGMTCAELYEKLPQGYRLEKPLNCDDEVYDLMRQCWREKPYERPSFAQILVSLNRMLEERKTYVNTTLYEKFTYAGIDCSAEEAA
Source text: Assays measured direct interactions between chemicals and molecular targets (receptors, enzymes), as well as downstream effects on reporter gene activity or cellular consequences. […] The perturbation scores are a method of aggregating assays into groups and providing a higher-level view of chemical activity across important signaling pathways.
The chemical library was run against these assays, as was a repeat of the TIE2 assay from the original data series (Table 2).

[2] = pVDCs with rabbit-specific effects
[3] = rabbit-specific effects in ToxRefDB prenatal studies, ref U.S. EPA 2010b
[4] = rat-specific effects in ToxRefDB prenatal studies, ref U.S. EPA 2010b
[5] = pVDCs with rat-specific effects
[6] = ranking of 309 phase I chemicals, mean cutoff for pVDC

Compound	VBS [1, 2]	Developmental phenotype (pregnant rats; [4])	VBS [1, 5]	other results
C[C@@]1(c2ccc(Oc3ccccc3)cc2)OC(=O)N(Nc2ccccc2)C1=O (racemic) [Famoxadone]	1.82	–	–	Developmental phenotype (pregnant rabbits; [3]): Embryo fetal loss; maternal pregnancy loss
Oc1ccc(C(c2ccc(O)cc2)C(Cl)(Cl)Cl)cc1 [2,2-bis-(p-Hydroxyphenyl)-1,1,1-trichloroethane]	–	–	–	AC50 (PI3Ka): 28 µM; VBS ([1]; ToxCast chemicals of Table 2): 2.28
Cc1nn(C)c(Oc2ccccc2)c1/C=N/OCc1ccc(C(=O)OC(C)(C)C)cc1 [(Z,E)-Fenpyroximate]	–	Skeletal: axial	3.88	–
CCOCN(C(=O)CCl)c1c(C)cccc1CC [Acetochlor]	–	–	2.16	–
CCc1cccc(CC)c1N(COC)C(=O)CCl [Alachlor]	–	Fetal weight reduction; embryo fetal loss	2.97	–
COP(=O)(OC)SCn1c(=O)oc2cc(Cl)cnc21 [Azamethiphos]	3.10	–	–	Developmental phenotype (pregnant rabbits; [3]): Maternal pregnancy loss
CCCCOCN(C(=O)CCl)c1c(CC)cccc1CC [Butachlor]	1.99	–	–	–
C=CCOC(=O)C(C)(C)OC(=O)c1cc(-n2c(=O)cc(C(F)(F)F)n(C)c2=O)ccc1Cl [Butafenacil]	2.94	–	–	Developmental phenotype (pregnant rabbits; [3]): Embryo fetal loss
O=C1C2CC=CCC2C(=O)N1SC(Cl)(Cl)Cl (stereo not shown) [Captan]	–	–	–	VBS ([1]; ToxCast chemicals of Table 2): 1.14; AC50 (PTEN): 35 µM
CC1=C(C(=O)Nc2ccccc2)SCCO1 [Carboxin]	1.56	–	–	Developmental phenotype (pregnant rabbits; [3]): Maternal pregnancy loss
N#Cc1c(Cl)c(Cl)c(Cl)c(C#N)c1Cl [Chlorothalonil]	–	Embryo fetal loss; maternal pregnancy loss	3.28	–
CCOP(=S)(OCC)Oc1ccc2c(C)c(Cl)c(=O)oc2c1 [Coumaphos]	–	–	–	MOUSE Chronic (mouse): No effe ct re corded
Cc1ccc(-c2c(Cl)nc(C#N)n2S(=O)(=O)N(C)C)cc1 [Cyazofamid]	–	Skeletal: axial	3.34	–
O=C(O)C1(C(=O)Nc2ccc(Cl)cc2Cl)CC1 [Cyclanilide]	–	–	–	VBS ([1]; ToxCast chemicals of Table 2): 0.21; AC50 (PTEN; read-out: PTEN AC50): 3.9 µM; AC50 (EphB2): 50 µM
CN1CSC(=S)N(C)C1 [Dazomet]	2.61	–	–	–
COP(=O)(OC)OC=C(Cl)Cl [Dichlorvos]	2.34	–	–	Developmental phenotype (pregnant rabbits; rabbit, in vivo): Maternal pregnancy loss
CCOc1nc(F)cc2nc(S(=O)(=O)Nc3c(Cl)cccc3Cl)nn12 [Diclosulam]	2.09	–	–	VBS ([1]; ToxCast chemicals of Table 2): 2.09; Developmental phenotype (pregnant rabbits; [3]): Maternal pregnancy loss; AC50 (PTEN; read-out: PTEN AC50): 50 µM
OC(c1ccc(Cl)cc1)(c1ccc(Cl)cc1)C(Cl)(Cl)Cl [Dicofol]	1.92	–	–	Developmental phenotype (pregnant rabbits; [3]): Maternal pregnancy loss
COP(=O)(OC)O/C(C)=C/C(=O)N(C)C [Dicrotophos]	1.59	–	–	–
CCOc1cc(C(C)(C)C)ccc1C1COC(c2c(F)cccc2F)=N1 (stereo not shown) [Etoxazole]	3.66	–	–	Developmental phenotype (pregnant rabbits; [3]): Skeletal: axial
CCOC(=O)NCCOc1ccc(Oc2ccccc2)cc1 [Fenoxycarb]	3.60	–	–	Developmental phenotype (pregnant rabbits; [3]): Skeletal: axial
CC1(C)C(C(=O)OC(C#N)c2cccc(Oc3ccccc3)c2)C1(C)C (stereo not shown) [Fenpropathrin]	–	–	2.18	Developmental phenotype (pregnant rats; rat, in vivo): Maternal pregnancy loss
N#Cc1c[nH]cc1-c1cccc2c1OC(F)(F)O2 [Fludioxonil]	–	Urogenital: renal, ureteric	1.82	Developmental phenotype (pregnant rats; rat-specific effects in ToxRefDB prenatal studies, ref U.S. EPA 2010b, listed as fludioxonil): urogenital end points
CCOC(=O)COc1cc(-n2ncc(C(F)(F)F)c(C)c2=O)c(F)cc1Cl [Flufenpyr-ethyl]	1.73	–	–	Developmental phenotype (pregnant rabbits; [3]): Maternal pregnancy loss
CCCCCOC(=O)COc1cc(N2C(=O)C3=C(CCCC3)C2=O)c(F)cc1Cl [Flumiclorac-pentyl]	2.11	–	–	Developmental phenotype (pregnant rabbits; [3]): Maternal pregnancy loss
CO/N=C(/C1=NOCCO1)c1ccccc1Oc1ncnc(Oc2ccccc2Cl)c1F [Fluoxastrobin]	–	Skeletal: appendicular	2.79	–

Compound	VBS [1, 2]	Developmental phenotype (pregnant rats; [4])	VBS [1, 5]	other results
C[C@@H]1[C@@H](c2ccc(Cl)cc2)SC(=O)N1C(=O)NC1CCCCC1 [Hexythiazox]	–	Skeletal: appendicular	2.78	–
CCOC(=O)C(C)OC(=O)c1cc(Oc2ccc(C(F)(F)F)cc2Cl)ccc1[N+](=O)[O-] (stereo not shown) [Lactofen]	–	Fetal weight reduction; maternal pregnancy loss; skeletal: appendicular; skeletal: axial	3.18	–
N#CSCSC#N [Methylene bis(thiocyanate)]	6.55	–	–	Developmental phenotype (pregnant rabbits; [3]): Maternal pregnancy loss
CCc1cccc(C)c1N(C(=O)CCl)C(C)COC (stereo not shown) [Metolachlor]	–	Fetal weight reduction; embryo fetal loss; maternal pregnancy loss	1.57	–
COP(=O)(OC)OC(Br)C(Cl)(Cl)Br (stereo not shown) [Naled]	–	Embryo fetal loss; trunk: body wall	4.22	–
CCOc1cc(Oc2ccc(C(F)(F)F)cc2Cl)ccc1[N+](=O)[O-] [Oxyfluorfen]	1.82	–	–	Developmental phenotype (pregnant rabbits; [3]): Embryo fetal loss; maternal pregnancy loss
CN(C)[C@@H]1C(O)=C(C(N)=O)C(=O)[C@@]2(O)C(O)=C3C(=O)c4c(O)cccc4[C@@](C)(O)[C@H]3[C@H](O)[C@@H]12 [Oxytetracycline dihydrate, reference compound]	–	–	–	AC50 (VEGFR3): 6.5 µM; AC50 (PI3Ka): 6.2 µM; AC50 (VEGFR2): 19 µM; VBS ([1]; ToxCast chemicals of Table 2): 3.85; AC50 (PTEN): 1.6 µM; AC50 (TIE2): 15 µM
C#CCC1=C(C)C(OC(=O)C2C(C=C(C)C)C2(C)C)CC1=O (stereo not shown) [Prallethrin]	–	Maternal pregnancy loss	2.11	–
CCCN(CCC)c1c([N+](=O)[O-])cc(C(F)(F)F)c(N)c1[N+](=O)[O-] [Prodiamine]	–	Neurosensory: eye	2.19	–
CCCSP(=O)(OCC)Oc1ccc(Br)cc1Cl (stereo not shown) [Profenofos]	–	Maternal pregnancy loss	1.71	–
C#CCOS(=O)OC1CCCCC1Oc1ccc(C(C)(C)C)cc1 (stereo not shown) [Propargite]	3.79	–	–	Developmental phenotype (pregnant rabbits; [3]): Skeletal: axial
CCNP(=S)(OC)O/C(C)=C/C(=O)OC(C)C (stereo not shown) [Propetamphos]	2.08	–	–	Developmental phenotype (pregnant rabbits; [3]): Embryo fetal loss
Fc1ccc(Oc2ccnc3cc(Cl)cc(Cl)c23)cc1 [Quinoxyfen]	3.02	–	–	Developmental phenotype (pregnant rabbits; rabbit, in vivo): Maternal pregnancy loss
CCS(=O)(=O)c1cccnc1S(=O)(=O)NC(=O)Nc1nc(OC)cc(OC)n1 [Rimsulfuron]	2.52	–	–	Developmental phenotype (pregnant rabbits; rabbit, in vivo): Embryo fetal loss; maternal pregnancy loss
CCC/C(=N\OCC)C1=C(O)CC(CC(C)SCC)CC1=O (stereo not shown) [Sethoxydim]	–	–	–	VBS ([1]; ToxCast chemicals of Table 2): 0.00; AC50 (PTEN): 22 µM
CCC(C)(C)C(=O)OC1=C(c2ccc(Cl)cc2Cl)C(=O)OC12CCCCC2 [Spirodiclofen]	–	Urogenital: renal	3.15	Developmental phenotype (pregnant rats; rat-specific effects in ToxRefDB prenatal studies, ref U.S. EPA 2010b, listed as spirodiclofen): urogenital end points
FC(F)C(F)(F)OCC(Cn1cncn1)c1ccc(Cl)cc1Cl (stereo not shown) [Tetraconazole]	–	General fetal pathology; skeletal: axial; urogenital: renal, ureteric	2.23	Developmental phenotype (pregnant rats; rat, in vivo): urogenital end points
COC(=O)c1c(C(F)F)nc(C(F)(F)F)c(C2=NCCS2)c1CC(C)C [Thiazopyr]	–	–	2.00	–
CS/C(C)=N\OC(=O)N(C)SN(C)C(=O)O/N=C(\C)SC [Thiodicarb]	–	Fetal weight reduction, general fetal pathology; embryo fetal loss; maternal pregnancy loss; skeletal: axial	2.97	–
CON=C(C(=O)OC)c1ccccc1CON=C(C)c1cccc(C(F)(F)F)c1 [Trifloxystrobin]	4.26	–	–	Developmental phenotype (pregnant rabbits; [3]): Skeletal: axial
CC1(C)C(C=C(Cl)Cl)C1C(=O)OC(C#N)c1ccc(F)c(Oc2ccccc2)c1 (stereo not shown) [cyfluthrin]	–	–	–	VBS [1, 6]: 1.48
CC(C)(C)c1ccc(CSc2cnn(C(C)(C)C)c(=O)c2Cl)cc1 [pyridaben]	–	–	–	VBS [1, 6]: 6.9
Abamectin	–	–	–	PI3Ka AC50 (PI3Ka): 6.4 µM; VBS ([1]; ToxCast chemicals of Table 2): 5.19; AC50 (EphB2): 17 µM; AC50 (TIE2; read-out: TIE2 AC50, repeat of the TIE2 assay from the original data series): 38.8 µM
Diniconazole	–	–	4.57	–
Emamectin benzoate	–	Fetal weight reduction; skeletal: appendicular, axial, cranial	2.91	PI3Ka AC50 (PI3Ka): 7.9 µM; VBS ([1]; ToxCast chemicals of Table 2): 2.91; AC50 (PTEN; read-out: PTEN AC50): 2.1 µM; AC50 (EphB2): 21 µM
